The compounds below were run on 3T3-L1 cells (assay: Inhibition of adipocyte differentiation, Oil Red O staining of triglyceride). Conditions: 0.1, 1, 10, 50 and 100 μM, 14 days, vs DMSO control.
Assay type: cell-based, mouse
Experimental: Mouse adipocyte cell line (3T3-L1) was used to investigate the effect of various indole-3-carbinol derivatives on differentiation and growth of adipocytes. The preadipocytes, 3T3-L1 cells, were seeded on a 12-well plate and cultured to confluency using Dulbecco's modified Eagle's medium (DMEM) containing 1% penicillin-streptomycin, 1% nonessential amino acid and 10% fatal bovine serum (FBS), in a 5% CO2 incubator at 37° C. The 3T3-L1 cells grown to confluency were cultured for 2 days in MDI medium containing 0.5 mM isobutylmethylxanthine, 1 μM dexamethasone and 1 μg/mL insulin to differentiate them into adipocytes. Then, the cells were further cultivated in DMEM containing 1 μg/mL insulin to differentiate them into mature adipocytes. The cells were further cultured for 10 more days while replacing DMEM every other day to obtain fully differentiated adipocytes.
From the first day when MDI was added to the 3T3-L1 cells, 16 indole-3-carbinol derivative compounds were treated at concentrations of 0.1, 1, 10, 50 and 100 μM with 2-day intervals. The structure and molecular weight of the 16 indole-3-carbinol derivatives (B518, B521, B525, B528, B538, B540, B542, B544, B545, B546, B547, B549, B551, B556, B558 and B561) are described in Table 1. The derivative compounds were used after being dissolved in DMSO. Only DMSO was added to the negative control group.
After culturing for a total of 14 days, the medium was removed when the differentiation was completed and lipid droplets in the differentiated adipocytes were stained. For this, the cells were washed twice with phosphate buffered saline (PBS), fixed in 10% buffered neutral formalin (BNF) for 1 hour, washed once again with PBS, stained for 1 hour by adding 1 mL of Oil Red O dye, which specifically stains fat red, on the 12-well plate, and washed twice with distilled water. In order to measure the level of triglyceride contained in the differentiated 3T3-L1 cells, the stained lipid droplets were dissolved in 1 mL of isobutanol and optical density (OD) value was measured at 600 nm.

SMILES | differentiation of the preadipocytes 3T3L1
O=C1N(CCc2ccccc2)c2ccc(Br)cc2C1(O)c1c[nH]c2ccccc12 (centres unmarked) [B518, 5′-Bromo-3′-hydroxy-1′-(2-phenylethyl)-1′,3′-dihydro-1H,2′H-3,3′-biindol-2′-one] | reduced the differentiation of the preadipocytes 3T3L1 in a concentration-dependent manner
CN1C(=O)C(O)(c2c[nH]c3ccccc23)c2cc(Cl)ccc21 (centres unmarked) [B521, 5′-Chloro-3′-hydroxy-1′-methyl-1′,3′-dihydro-1H,2′H-3,3′-biindol-2′-one] | reduced the differentiation of the preadipocytes 3T3L1 in a concentration-dependent manner
O=C1N(CCc2ccccc2)c2ccccc2C1(O)c1c[nH]c2ccccc12 (centres unmarked) [B538, 3′-Hydroxy-1′-(2-phenylethyl)-1′,3′-dihydro-1H,2′H-3,3′-biindol-2′-one] | reduced the differentiation of the preadipocytes 3T3L1 in a concentration-dependent manner
CCCCN1C(=O)C(O)(c2c[nH]c3ccccc23)c2cc(Br)ccc21 (centres unmarked) [B540, 5′-Bromo-1′-butyl-3′-hydroxy-1′,3′-dihydro-1H,2′H-3,3′-biindol-2′-one] | reduced the differentiation of the preadipocytes 3T3L1 in a concentration-dependent manner
O=C1N(Cc2ccccc2)c2ccccc2C1(O)c1c[nH]c2ccccc12 (centres unmarked) [B542, 1′-Benzyl-3′-hydroxy-1′,3′-dihydro-1H,2′H-3,3′-biindol-2′-one] | reduced the differentiation of the preadipocytes 3T3L1 in a concentration-dependent manner
CCN1C(=O)C(O)(c2c[nH]c3ccccc23)c2cc(Br)ccc21 (centres unmarked) [B544, 5′-Bromo-1′-ethyl-3′-hydroxy-1′,3′-dihydro-1H,2′H-3,3′-biindol-2′-one] | reduced the differentiation of the preadipocytes 3T3L1 in a concentration-dependent manner
Cc1ccc(CN2C(=O)C(O)(c3c[nH]c4ccccc34)c3ccccc32)cc1 (centres unmarked) [B545, 3′-Hydroxy-1′-(4-methylbenzyl)-1′,3′-dihydro-1H,2′H-3,3′-biindol-2′-one] | reduced the differentiation of the preadipocytes 3T3L1 in a concentration-dependent manner
O=C1N(Cc2ccc(Cl)cc2)c2ccccc2C1(O)c1c[nH]c2ccccc12 (centres unmarked) [B546, 1′-(4-Chlorobenzyl)-3′-hydroxy-1′,3′-dihydro-1H,2′H-3,3′-biindol-2′-one] | reduced the differentiation of the preadipocytes 3T3L1 in a concentration-dependent manner
Cc1[nH]c2ccccc2c1C1(O)C(=O)N(CCc2ccccc2)c2ccc(Cl)cc21 (centres unmarked) [B547, 5′-Chloro-3′-hydroxy-2-methyl-1′-(2-phenylethyl)-1′,3′-dihydro-1H,2′H-3,3′-biindol-2′-one] | reduced the differentiation of the preadipocytes 3T3L1 in a concentration-dependent manner
Cc1ccc(C)c(CN2C(=O)C(O)(c3c(C)[nH]c4ccccc34)c3ccccc32)c1 (centres unmarked) [B549, 1′-(2,5-Dimethylbenzyl)-3′-hydroxy-2-methyl-1′,3′-dihydro-1H,2′H-3,3′-biindol-2′-one] | reduced the differentiation of the preadipocytes 3T3L1 in a concentration-dependent manner
Cc1[nH]c2ccccc2c1C1(O)C(=O)N(Cc2cccs2)c2ccccc21 (centres unmarked) [B551, 3′-Hydroxy-2-methyl-1′-(2-thienylmethyl)-1′,3′-dihydro-1H,2′H-3,3′-biindol-2′-one] | reduced the differentiation of the preadipocytes 3T3L1 in a concentration-dependent manner
Cc1ccc(OCCN2C(=O)C(O)(c3c(C)[nH]c4ccccc34)c3ccccc32)cc1 (centres unmarked) [B556, 3′-Hydroxy-2-methyl-1′-[2-(4-methylphenoxy)ethyl]-1′,3′-dihydro-1H,2′H-3,3′-biindol-2′-one] | reduced the differentiation of the preadipocytes 3T3L1 in a concentration-dependent manner

Same assay, conditions: 3T3-L1 cells, FIGS. 1-3

SMILES | triglyceride accumulation in cells
O=C1N(CCc2ccccc2)c2ccc(Br)cc2C1(O)c1c[nH]c2ccccc12 (centres unmarked) [B518, 5′-Bromo-3′-hydroxy-1′-(2-phenylethyl)-1′,3′-dihydro-1H,2′H-3,3′-biindol-2′-one] | effectively reduce triglyceride accumulation in cells
O=C1N(CCc2ccccc2)c2ccccc2C1(O)c1c[nH]c2ccccc12 (centres unmarked) [B538, 3′-Hydroxy-1′-(2-phenylethyl)-1′,3′-dihydro-1H,2′H-3,3′-biindol-2′-one] | effectively reduce triglyceride accumulation in cells

— patent US8946283B2, “Composition for preventing or treating obesity, dyslipidemia, fatty liver or diabetes containing indole-3-carbinol derivative as active ingredient” (Industry-Academic Cooperation Foundation, Yonsei University, priority 2011, dated 2015)
